Results as given in patent US4294843A, “Anti-protozoal oxadiazole derivatives” (Burroughs Wellcome Co., priority 1978, dated 1981).

Assays:
[1] = LD50 in female rats, oral by gavage; details: rat, in vivo, 10% w/v suspension in corn oil
Method: 1. The LD50 of the compound of Example 3, both as the free base and the hydrochloride salt was determined in female rats by standard techniques the compound being administered as a 10% w/v suspension in corn oil orally by gavage.

LD50 in mice, oral = details: mouse, in vivo, suspension of 0.25% Celacol
Method: 2. The LD50 of the compound of Example 3 was determined in mice by standard techniques, the compound being administered orally in a suspension of 0.25% Celacol.

Nc1ccccc1SCc1ncon1 [Example 3, 3-(2-Aminophenylthiomethyl)-1,2,4-oxadiazole]
LD50 [1]: 79.4 mg/kg
LD50 (LD50 in mice, oral): ~45 mg/kg
